# Source: patent US20100227356A1, “METHODS FOR ASSESSING EFFECTS ON SKELETAL GROWTH” (priority 2008, published 2010)
# Tested on: neonatal limb culture
# Assay: X-ray imaging of neonatal mouse hind limb organ culture (effect of bisphosphonates on bone density)
# Assay type: cell-based, Swiss albino mouse
# Conditions: 1 mM pamidronate in culture medium (well A) vs control (well B); neonatal limb in culture for 40 hours; FIG. 3
# From the text: The method of the invention may be used to monitor the dynamic growth of an articulated skeletal […] by capturing a series of images overtime. In this example, an articulated lower portion (hind limb) of a limb of a neonatal, day-old Swiss albino mouse was removed and cultured in a well plate. The limb was scraped with a scalpel to abrade any skin and flesh sufficiently to allow an organ culture medium to reach the skeletal members. The scraped limb was superficially embedded in 1% agarose. The medium used for culture was 4 ml of minimum essential medium (Delbecco's Modified Eagle Medium), supplemented with 1 mM β glycerophosphate, ascorbic acid, 0.2% bovine serum albumin and antibiotics. The antibiotics contained 100 units/ml penicillin, and 100 μg/ml streptomycin. The skeletal members of the limbs continued to grow within the cultures and were imaged with X-rays (Time-Lapse-3 hrs; 11 to […] using a multi-modal system as previously described). Bone growth and mineral deposition could be measured, as could X-ray and column densities. Because the limb was articulated, the growth of individual skeletal members was influenced by neighboring members, just as in the case of growth in a living animal. The analytical X-ray imaging methodology according to the invention allows measurement of the growth of skeletal members of a neonatal mouse limb grown in vitro in organ culture. […]
structure (smiles),measurement,value
"NCCC(O)(P(=O)(O)O)P(=O)(O)O [pamidronate, Pamidronate]",bone density and size versus control (X-ray images),differences in bone density and size are observable
